Counter-ions that a name gives are not always drawn.
biological target: T1, human hNET (Homo sapiens, UniProt P23975); experiment: Functional norepinephrine reuptake assay, Procedure B (6,000 cells/well); assay type: cell-based; details: not given
T1 construct: expressed in transfected cells; host or cells: MDCK-Net6 (MDCK cells stably transfected with hNET)
Outline: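 MDCK cells stably expressing human NET, 6,000 cells/well, in HEPES-buffered saline pH 7.4 with ascorbic acid and 1 μM pargyline; compound preincubated 5 min at 37° C. ^3H norepinephrine uptake counted by scintillation; non-specific defined with 20 μM desipramine. IC50 from variable-slope sigmoidal nonlinear fit.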

T1 sequence (P23975 whole entry): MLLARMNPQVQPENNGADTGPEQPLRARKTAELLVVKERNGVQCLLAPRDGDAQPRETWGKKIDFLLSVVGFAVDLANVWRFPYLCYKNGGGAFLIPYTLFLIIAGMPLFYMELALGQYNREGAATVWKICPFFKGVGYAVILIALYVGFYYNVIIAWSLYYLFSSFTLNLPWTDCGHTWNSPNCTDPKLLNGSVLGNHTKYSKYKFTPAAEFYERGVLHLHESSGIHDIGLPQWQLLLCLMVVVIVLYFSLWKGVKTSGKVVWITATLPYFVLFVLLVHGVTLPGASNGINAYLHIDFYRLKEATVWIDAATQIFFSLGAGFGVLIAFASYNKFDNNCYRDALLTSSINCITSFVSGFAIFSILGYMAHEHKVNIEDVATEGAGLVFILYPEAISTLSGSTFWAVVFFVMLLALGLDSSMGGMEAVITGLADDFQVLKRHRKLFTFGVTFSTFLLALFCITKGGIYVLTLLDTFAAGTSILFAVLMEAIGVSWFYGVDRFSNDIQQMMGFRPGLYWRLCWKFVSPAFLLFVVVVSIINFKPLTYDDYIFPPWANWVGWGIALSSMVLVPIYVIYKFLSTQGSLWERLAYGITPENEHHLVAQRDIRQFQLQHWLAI

Work on `CNCCC[C@H]1Cc2ccccc2N(c2c(F)cccc2F)S1(=O)=O` (single isomer, unassigned) [Example 121] yielded an IC50 of 52 nM.

same assay, conditions: MDCK-Net6 cells, 6,000 cells/well, 16 nM 3H-norepinephrine; read-out: Procedure B hNET uptake IC50

In order of falling IC50:
1. CNCCCC1Oc2ccccc2N(c2ccc3ccccc3c2)S1(=O)=O (stereo not drawn) [Example 21, N-methyl-3-[1-(2-naphthyl)-2,2-dioxido-1H-4,2,1-benzoxathiazin-3-yl]propan-1-amine]  4570 nM
2. CN(C)CCN(C)CC1Oc2ccccc2N(c2ccccc2)S1(=O)=O (stereo not drawn) [Example 140, N-[(2,2-dioxido-1-phenyl-1H-4,2,1-benzoxathiazin-3-yl)methyl]-N,N′,N′-trimethylethane-1,2-diamine]  4320 nM
3. CN(C)CCCC1Oc2ccccc2N(c2ccccc2)S1(=O)=O (stereo not drawn) [Example 80, 3-(2,2-dioxido-1-phenyl-1H-4,2,1-benzoxathiazin-3-yl)-N,N-dimethylpropan-1-amine hydrochloride]  4160 nM
4. CNCCCC1Oc2ccccc2N(c2cc(C)cc(C)c2)S1(=O)=O (stereo not drawn) [Example 22, 3-[1-(3,5-dimethylphenyl)-2,2-dioxido-1H-4,2,1-benzoxathiazin-3-yl]-N-methylpropan-1-amine]  4150 nM
5. CN(C)CCNCC1Oc2ccccc2N(c2ccccc2)S1(=O)=O (stereo not drawn) [Example 138, N′-[(2,2-dioxido-1-phenyl-1H-4,2,1-benzoxathiazin-3-yl)methyl]-N,N-dimethylethane-1,2-diamine]  3750 nM
6. CC(C)CNCCC1Oc2ccccc2N(c2ccccc2)S1(=O)=O (stereo not drawn) [Example 28, N-[2-(2,2-dioxido-1-phenyl-1H-4,2,1-benzoxathiazin-3-yl)ethyl]-2-methylpropan-1-amine]  1760 nM
7. CCCCNCCC1Oc2ccccc2N(c2ccccc2)S1(=O)=O (stereo not drawn) [Example 31, N-[2-(2,2-dioxido-1-phenyl-1H-4,2,1-benzoxathiazin-3-yl)ethyl]butan-1-amine]  1660 nM
8. CNCCCC1Sc2ccccc2N(c2ccc(Cl)cc2)S1(=O)=O (stereo not drawn) [Example 67, 3-[1-(4-chlorophenyl)-2,2-dioxido-1H-2,4,1-benzodithiazin-3-yl]-N-methylpropan-1-amine Hydrochloride]  1500 nM
9. O=S1(=O)C(CCCNC2CC2)Oc2ccccc2N1c1ccccc1 (stereo not drawn) [Example 40, N-[3-(2,2-dioxido-1-phenyl-1H-4,2,1-benzoxathiazin-3-yl)propyl]cyclopropanamine]  1080 nM
10. CNCCCC1Sc2ccccc2N(c2ccc(F)cc2)S1(=O)=O (stereo not drawn) [Example 64, 3-[1-(4-fluorophenyl)-2,2-dioxido-1H-2,4,1-benzodithiazin-3-yl]-N-methylpropan-1-amine Hydrochloride]  1000 nM
11. CNCCCC1Sc2ccccc2N(c2ccc(F)c(Cl)c2)S1(=O)=O (stereo not drawn) [Example 68, 3-[1-(3-chloro-4-fluorophenyl)-2,2-dioxido-1H-2,4,1-benzodithiazin-3-yl]-N-methylpropan-1-amine Hydrochloride]  471 nM
12. CNCCCC1Oc2c(F)cccc2N(c2ccccc2)S1(=O)=O (stereo not drawn) [Example 47, 3-(5-fluoro-2,2-dioxido-1-phenyl-1H-4,2,1-benzoxathiazin-3-yl)-N-methylpropan-1-amine]  431 nM
13. CNCCCC1Oc2ccccc2N(c2cccc(C)c2)S1(=O)=O (stereo not drawn) [Example 16, N-methyl-3-[1-(3-methylphenyl)-2,2-dioxido-1H-4,2,1-benzoxathiazin-3-yl]propan-1-amine]  361 nM
14. CNCCCC1Oc2ccccc2N(c2cccnc2)S1(=O)=O (stereo not drawn) [Example 56, 3-(2,2-dioxido-1-pyridin-3-yl-1H-4,2,1-benzoxathiazin-3-yl)-N-methylpropan-1-amine]  345 nM
15. CNCCC[C@H]1Cc2cc(F)ccc2N(c2ccc(F)cc2C)S1(=O)=O (single isomer, unassigned) [Example 170]  343 nM
16. CNCCC[C@H]1Cc2cc(F)ccc2N(c2ccccc2C#N)S1(=O)=O (single isomer, unassigned) [Example 164]  288 nM
17. CNCCCC1Cc2cc(F)ccc2N(c2ccccc2C#N)S1(=O)=O (racemic) [Example 163, 2-{6-fluoro-3-[3-(methylamino)propyl]-2,2-dioxido-3,4-dihydro-1H-2,1-benzothiazin-1-yl}benzonitrile]  189 nM
18. CNCCC1Oc2ccccc2N(c2ccccc2)S1(=O)=O (stereo not drawn) [Example 25, 2-(2,2-dioxido-1-phenyl-1H-4,2,1-benzoxathiazin-3-yl)-N-methylethanamine]  162 nM
19. CNCC[C@H]1Oc2cc(F)ccc2N(c2ccccc2)S1(=O)=O (single isomer, unassigned) [Example 118]  143 nM
20. CNCCC[C@@H]1Cc2cc(F)ccc2N(c2ccccc2Cl)S1(=O)=O (single isomer, unassigned) [Example 159]  133 nM
21. CNCCCC1Sc2ccccc2N(c2ccccc2)S1(=O)=O (stereo not drawn) [Example 59, 3-(2,2-dioxido-1-phenyl-1H-2,4,1-benzodithiazin-3-yl)-N-methylpropan-1-amine Hydrochloride]  122 nM
22. CNCCCC1Oc2cc3ccccc3cc2N(c2cccc(F)c2)S1(=O)=O (stereo not drawn) [Example 70, 3-[1-(3-fluorophenyl)-2,2-dioxido-1H-naphtho[2,3-e][1,3,4]oxathiazin-3-yl]-N-methylpropan-1-amine Hydrochloride]  119 nM
23. CNCCCC1Oc2cc(Cl)ccc2N(c2ccccc2)S1(=O)=O (stereo not drawn) [Example 45, 3-(6-chloro-2,2-dioxido-1-phenyl-1H-4,2,1-benzoxathiazin-3-yl)-N-methylpropan-1-amine]  114 nM
24. CNCCC[C@H]1Cc2cc(F)ccc2N(c2ccc(F)cc2F)S1(=O)=O (single isomer, unassigned) [Example 112]  100 nM
25. CNCCC[C@H]1Cc2ccccc2N(c2ccccc2)S1(=O)=O (single isomer, unassigned) [Example 10]  96 nM
26. CNCCCC1Cc2cc(F)ccc2N(c2ccc(F)cc2F)S1(=O)=O (racemic) [Example 111, 3-[1-(2,4-difluorophenyl)-6-fluoro-2,2-dioxido-3,4-dihydro-1H-2,1-benzothiazin-3-yl]-N-methylpropan-1-amine]  92 nM
27. CNCCCC1Sc2ccccc2N(c2cccc(F)c2)S1(=O)=O (stereo not drawn) [Example 61, 3-[1-(3-fluorophenyl)-2,2-dioxido-1H-2,4,1-benzodithiazin-3-yl]-N-methylpropan-1-amine hydrochloride]  80.7 nM
28. CNC[C@@H](O)C[C@H]1Oc2ccccc2N(c2ccccc2)S1(=O)=O (single isomer, unassigned) [Example 98]  77 nM
29. CNCCCC1Cc2cc(F)ccc2N(c2cccc(F)c2F)S1(=O)=O (racemic) [Example 145, 3-[1-(2,3-difluorophenyl)-6-fluoro-2,2-dioxido-3,4-dihydro-1H-2,1-benzothiazin-3-yl]-N-methylpropan-1-amine]  74 nM
30. CNCCC[C@H]1Cc2cc(F)ccc2N(c2ccc(C)cc2F)S1(=O)=O (single isomer, unassigned) [Example 149]  74 nM
31. CNCCC[C@H]1Oc2cc3ccccc3cc2N(c2ccccc2)S1(=O)=O (single isomer, unassigned) [Example 71, Hydrochloride]  69.4 nM
32. CNCCC[C@H]1Cc2cc(F)ccc2N(c2cc(F)ccc2F)S1(=O)=O (single isomer, unassigned) [Example 152]  40 nM
33. CNCCC[C@H]1Oc2ccccc2N(c2ccccc2)S1(=O)=O (single isomer, unassigned) [Example 13]  38.7 nM
34. CNCCCC1Cc2cc(F)ccc2N(c2cc(F)ccc2F)S1(=O)=O (racemic) [Example 151, 3-[1-(2,5-difluorophenyl)-6-fluoro-2,2-dioxido-3,4-dihydro-1H-2,1-benzothiazin-3-yl]-N-methylpropan-1-amine]  31 nM
35. CNCCCC1Oc2ccccc2N(c2ccc(C)cc2)S1(=O)=O (stereo not drawn) [Example 17, N-methyl-3-[1-(4-methylphenyl)-2,2-dioxido-1H-4,2,1-benzoxathiazin-3-yl]propan-1-amine]  26.4 nM
36. CNCCCC1Cc2cc(F)ccc2N(c2ccccc2F)S1(=O)=O (stereo not drawn) [Example 108, 3-[6-fluoro-1-(2-fluorophenyl)-2,2-dioxido-3,4-dihydro-1H-2,1-benzothiazin-3-yl]-N-methylpropan-1-amine]  24 nM
37. CNCCC[C@@H]1Oc2ccccc2N(c2ccccc2)S1(=O)=O (single isomer, unassigned) [Example 14]  23.9 nM
38. CNCCC[C@@H]1Oc2ccccc2N(c2ccccc2F)S1(=O)=O (single isomer, unassigned) [Example 94]  22 nM
39. CNCCC[C@@H]1Cc2ccccc2N(c2ccccc2)S1(=O)=O (single isomer, unassigned) [Example 11]  17.9 nM
40. CNCCC[C@@H]1Cc2cc(F)ccc2N(c2ccc(C)cc2F)S1(=O)=O (single isomer, unassigned) [Example 150]  16 nM

same assay, conditions: MDCK-Net6 cells, 6,000 cells/well; Conc 6000 nM (6 μM); hydrochloride

With `CN1CCN(CCC2Oc3ccccc3N(c3ccccc3)S2(=O)=O)CC1` (stereo not drawn) [Example 87, 3-[2-(4-Methyl-piperazin-1-yl)-ethyl]-1-phenyl-1H-benzo[1,3,4]oxathiazine 2,2-dioxide hydrochloride] the “Procedure B hNET uptake (% inhibition)” value was 35%.

same assay, conditions: MDCK-Net6 cells, 6,000 cells/well; Conc 6000 nM (6 μM); read-out: Procedure B hNET uptake (% inhibition)

In order of falling inhibition at 6 µM:
1. O=S1(=O)C(CCN2CCCNCC2)Oc2ccccc2N1c1ccccc1 (stereo not drawn) [Example 77, 3-[2-(1,4-diazepan-1-yl)ethyl]-1-phenyl-1H-4,2,1-benzoxathiazine-2,2-dioxide Dihydrochloride]  33%
2. CN1CCN(CC2Oc3ccccc3N(c3ccccc3)S2(=O)=O)CC1 (stereo not drawn) [Example 141, 3-[(4-methylpiperazin-1-yl)methyl]-1-phenyl-1H-4,2,1-benzoxathiazine 2,2-dioxide]  30%
3. CC(C)N(C)CCCC1Oc2ccccc2N(c2ccccc2)S1(=O)=O (stereo not drawn) [Example 84, 3-(2,2-dioxido-1-phenyl-1H-4,2,1-benzoxathiazin-3-yl)-N-isopropyl-N-methylpropan-1-amine Hydrochloride]  27%
